Reference: US9737540B2, “Combination treatment of cancer” (ASTRAZENECA AB, priority 2011, dated 2017)
Where two headings read alike, the source gives them in different places.

What was measured:
[1] = tested on: LNCaP prostate cancer cells (PTEN null, androgen receptor positive); format: in vivo; settings: castrated mice
[2] = tested on: LNCaP prostate tumour cell line; assay: Proliferation assay, Sytox Green endpoint, live cell number after 5 days (LNCaP); format: cell-based; settings: LNCaP cells; monotherapy or with MDV-3100 0.1 μM to 10 μM; n=3
Method: (§1) The LNCaP and VCAP prostate tumour cell lines (American Tissue Culture Collection) were routinely cultured in RMPI supplemented with 10% FCS and 2 mM L-glutamine. To determine the effect of AZD5363 and MDV-3100, either as a monotherapy or in combination, on cell growth, a proliferation assay was performed using the Sytox Green endpoint to measure live cell number after 5 days. […] Cells were then dosed with increasing concentrations of AZD5363 (0.01-1 μM), MDV-3100 (0.1-10 μM) or a combination of each agent in a 6×6 matrix format. After 5-day exposure to compound, Sytox Green nucleic acid dye (Invitrogen) diluted in TBS-EDTA (TBS=Tris-buffered saline, EDTA=ethylenediaminetetraacetic acid) buffer was added to cells at a final concentration of […] and the number of dead cells detected using an Acumen Explorer. Cells were then permeabilised by the addition of saponin (0.03% final concentration, diluted in TBS-EDTA buffer), incubated overnight and a total cell count measured. The live cell count was then determined by subtracting the number of dead cells per well from the total number of cells. […] The data is presented as % growth using the NCI formulae as follows: [(Ti-Tz)/(C-Tz)]×100 for concentrations for which Ti>/=Tz [(Ti-Tz)/Tz]×100 for concentrations for which Ti<Tz. […] Synergism of the drug combination was evaluated using a unified approach described by C. […]

[3] = tested on: VCAP prostate tumour cell line; assay: Proliferation assay, Sytox Green endpoint, live cell number after 5 days (VCAP); format: cell-based; settings: VCAP cells; monotherapy or with MDV-3100 0.1 μM to 10 μM; n=3
Method: as §1

Structure (SMILES)	inhibition of tumour volume ([1]; AZD5363 monotherapy 100 mg/kg bd, 5 days on, 2 days off)	Effect on cell growth / cell death (mean % growth, FIG. 1) [2]	Effect on cell growth (mean % growth, FIG. 2) [3]	inhibition of tumour volume ([1]; bicalutamide monotherapy 50 mg/kg qd)
NC1(C(=O)N[C@@H](CCO)c2ccc(Cl)cc2)CCN(c2ncnc3[nH]ccc23)CC1 [AZD5363, (S)-4-amino-N-(1-(4-chlorophenyl)-3-hydroxypropyl)-1-(7H-pyrrolo[2,3-d]pyrimidin-4-yl)piperidine-4-carboxamide]	56%	can inhibit the growth of LNCaP cells and induce cell death as a monotherapy	can inhibit the growth of VCAP cells as a monotherapy	
CC(O)(CS(=O)(=O)c1ccc(F)cc1)C(=O)Nc1ccc(C#N)c(C(F)(F)F)c1 (stereo not shown) [bicalutamide, N-[4-cyano-3-(trifluoromethyl)-phenyl]-3-[(4-fluorophenyl)-sulfonyl]-2-hydroxy-2-methylpropanamide, reference compound]				42%
